In ChEMBL document CHEMBL3124770, “Rugulactone derivatives act as inhibitors of NF-κB activation and modulates the transcription of NF-κB dependent genes in MDA-MB-231cells” (Bioorg Med Chem Lett, 2014):
pIC50: −log10 of the molar value. The source made the active and inactive calls. The rule behind the calls is not given here.

Columns and labels:
MDA-MB-231 [1] = test: Reduction in HDAC-8 nuclear expression in estrogen receptor-negative human MDA-MB-231 cells at 2 uM after 24 hrs by Western blotting analysis; format: functional, cell-based
MDA-MB-231 [2] = test: Inhibition of NFkappaB activity in estrogen receptor-negative human MDA-MB-231 cells assessed as retention of NFKappaB/Rel A in cytoplasm at 2 uM after 24 hrs by DAPI/PI staining-based confocal microscopy; format: cell-based
MDA-MB-231 [3] = test: Reduction in HDAC-3 nuclear expression in estrogen receptor-negative human MDA-MB-231 cells at 2 uM after 24 hrs by Western blotting analysis; format: functional, cell-based
MDA-MB-231 [4] = test: Effect on p21 gene expression in estrogen receptor-negative human MDA-MB-231 cells at 2 uM after 24 hrs by luciferase reporter gene assay; format: functional, cell-based
MDA-MB-231 [5] = test: Induction of apoptosis in estrogen receptor-negative human MDA-MB-231 cells assessed as reduced procaspase-3 level at 2 uM after 24 hrs by Western blotting analysis; format: functional, cell-based
MDA-MB-231 [6] = test: Induction of apoptosis in estrogen receptor-negative human MDA-MB-231 cells assessed as increase in Rb cleavage at 2 uM after 24 hrs by Western blotting analysis; format: functional, cell-based
MDA-MB-231 [7] = test: Induction of apoptosis in estrogen receptor-negative human MDA-MB-231 cells assessed as increase in PARP cleavage at 2 uM after 24 hrs by Western blotting analysis; format: functional, cell-based
MDA-MB-231 [8] = test: Cell cycle arrest in estrogen receptor-negative human MDA-MB-231 cells assessed as decrease in CDK2 expression at 2 uM after 24 hrs by Western blotting analysis; format: functional, cell-based
MDA-MB-231 [9] = test: Cell cycle arrest in estrogen receptor-negative human MDA-MB-231 cells assessed as decrease in Cyclin E expression at 2 uM after 24 hrs by Western blotting analysis; format: functional, cell-based
MDA-MB-231 [10] = test: Cell cycle arrest in estrogen receptor-negative human MDA-MB-231 cells assessed as accumulation at G2/M phase at 2 uM after 24 hrs by Propidium iodide staining-based flow cytometric analysis (reference value: 26.33 +/- 3.05%); format: functional
MDA-MB-231 [11] = test: Cell cycle arrest in estrogen receptor-negative human MDA-MB-231 cells assessed as accumulation at S phase at 2 uM after 24 hrs by Propidium iodide staining-based flow cytometric analysis (reference value: 19 +/- 1%); format: functional
MDA-MB-231 [12] = test: Cell cycle arrest in estrogen receptor-negative human MDA-MB-231 cells assessed as accumulation at G1 phase at 2 uM after 24 hrs by Propidium iodide staining-based flow cytometric analysis (reference value: 54.66 +/- 2.51%); format: functional
MCF7 [13] = test: Inhibition of NFkappaB activity in estrogen receptor-positive human MCF7 cells at 2 uM after 24 hrs by SEAP reporter assay; format: cell-based
MDA-MB-231 [14] = test: Inhibition of NFkappaB activity in estrogen receptor-negative human MDA-MB-231 cells at 2 uM after 24 hrs by SEAP reporter assay; format: cell-based
MCF7 [15] = test: Cytotoxicity against estrogen receptor-positive human MCF7 cells assessed as cell viability after 72 hrs by MTT assay; format: functional, cell-based; conditions: MCF7, 72 h
MDA-MB-231 [16] = test: Cytotoxicity against estrogen receptor-negative human MDA-MB-231 cells assessed as cell viability after 72 hrs by MTT assay; format: functional, cell-based; conditions: MDA-MB-231, 72 h
MDA-MB-231 [17] = test: Inhibition of NFkappaB activity in estrogen receptor-negative human MDA-MB-231 cells assessed as inhibition of cyclin D1 promoter activation at 2 uM by chromatin immunoprecipitation assay; format: cell-based
MDA-MB-231 [18] = test: Inhibition of NFkappaB activity in estrogen receptor-negative human MDA-MB-231 cells assessed as cytoplasmic localization of p65 at 2 uM after 24 hrs by ELISA; format: cell-based
MDA-MB-231 [19] = test: Inhibition of NFkappaB activity in estrogen receptor-negative human MDA-MB-231 cells assessed as reduction of Bcl-xL expression at 2 uM after 24 hrs by Western blotting analysis; format: cell-based
MDA-MB-231 [20] = test: Inhibition of NFkappaB activity in estrogen receptor-negative human MDA-MB-231 cells assessed as reduction of cyclin D1 expression at 2 uM after 24 hrs by Western blotting analysis; format: cell-based
MDA-MB-231 [21] = test: Inhibition of NFkappaB activity in estrogen receptor-negative human MDA-MB-231 cells assessed as reduction of p65 expression at 2 uM after 24 hrs by Western blotting analysis; format: cell-based
MDA-MB-231 [22] = test: Inhibition of NFkappaB activity in estrogen receptor-negative human MDA-MB-231 cells assessed as upregulation of p27 gene expression at 2 uM after 24 hrs by luciferase reporter gene assay relative to control; format: cell-based

SMILES | inhibition (MCF7 [13]) | inhibition (MDA-MB-231 [14]) | pIC50 (MCF7 [15]) | pIC50 (MDA-MB-231 [16]) | further results
O=C(/C=C/C[C@@H]1CC=CC(=O)O1)CCc1ccccc1 [R-RUGULACTONE] | Active | Active | 5.44 | 5.46 | Activity (MDA-MB-231 [1]): Active; NF-kappaB activity inhibition (MDA-MB-231 [2]): Active; Activity (MDA-MB-231 [3]): Active; Activity (MDA-MB-231 [4]): inactive; Activity (MDA-MB-231 [5]): Active; Activity (MDA-MB-231 [6]): Active; Activity (MDA-MB-231 [7]): Active; Activity (MDA-MB-231 [8]): Active; Activity (MDA-MB-231 [9]): Active; Activity (MDA-MB-231 [10]): 21.66%; Activity (MDA-MB-231 [11]): 8.33%; Activity (MDA-MB-231 [12]): 70%
CCCCCCCCCCCC(=O)/C=C/C[C@@H]1CC=CC(=O)O1 | Active | Active | 5.34 | 5.27 | –
CCCCCCCCCCCCCCCCCCCC(=O)/C=C/C[C@@H]1CC=CC(=O)O1 | Active | Active | 5.25 | 5.21 | –
O=C(/C=C/C[C@@H]1CC=CC(=O)O1)CCc1ccco1 | Active | Active | 5.36 | 5.47 | –
CCCCCCCCCCCCCCCCCCCC(=O)/C=C/C[C@H]1CC=CC(=O)O1 | Active | Active | 5.51 | 5.45 | –
O=C(/C=C/C[C@H]1CC=CC(=O)O1)CCc1ccc2c(c1)OCO2 | Active | Active | 5.48 | 5.51 | –
CCCCCCCCCCCCCCCCCC(=O)/C=C/C[C@@H]1CC=CC(=O)O1 | Active | Active | 5.63 | 5.68 | Activity (MDA-MB-231 [1]): Active; NF-kappaB activity inhibition (MDA-MB-231 [2]): Active; Activity (MDA-MB-231 [3]): Active; inhibition (MDA-MB-231 [17]): Active; inhibition (MDA-MB-231 [18]): Active; inhibition (MDA-MB-231 [19]): Active; inhibition (MDA-MB-231 [20]): Active; inhibition (MDA-MB-231 [21]): Active; fold change (FC) (MDA-MB-231 [22]): 2.5; Activity (MDA-MB-231 [4]): inactive; Activity (MDA-MB-231 [5]): Active; Activity (MDA-MB-231 [6]): Active; Activity (MDA-MB-231 [7]): Active; Activity (MDA-MB-231 [8]): Active; Activity (MDA-MB-231 [9]): Active; Activity (MDA-MB-231 [10]): 19.6%; Activity (MDA-MB-231 [11]): 6.33%; Activity (MDA-MB-231 [12]): 74%
CC(=O)/C=C/C[C@@H]1CC=CC(=O)O1 | Active | Active | 5.47 | 5.51 | Activity (MDA-MB-231 [1]): Active; NF-kappaB activity inhibition (MDA-MB-231 [2]): Active; Activity (MDA-MB-231 [3]): Active; Activity (MDA-MB-231 [4]): inactive; Activity (MDA-MB-231 [5]): Active; Activity (MDA-MB-231 [6]): Active; Activity (MDA-MB-231 [7]): Active; Activity (MDA-MB-231 [8]): Active; Activity (MDA-MB-231 [9]): Active; Activity (MDA-MB-231 [10]): 26%; Activity (MDA-MB-231 [11]): 6%; Activity (MDA-MB-231 [12]): 68%
O=C(/C=C/C[C@H]1CC=CC(=O)O1)CCc1cccc(O)c1 | Active | Active | 5.36 | 5.18 | –
O=C(/C=C/C[C@@H]1CC=CC(=O)O1)CCc1ccc2c(c1)OCO2 | Active | Active | 5.18 | 5.10 | –
CCCCCCCCCCCCCCCCC/C=C/C(=O)/C=C/C[C@H]1CC=CC(=O)O1 | Active | Active | 5.52 | 5.54 | Activity (MDA-MB-231 [1]): Active; NF-kappaB activity inhibition (MDA-MB-231 [2]): Active; Activity (MDA-MB-231 [3]): Active; inhibition (MDA-MB-231 [19]): Active; inhibition (MDA-MB-231 [20]): Active; inhibition (MDA-MB-231 [21]): Active; Activity (MDA-MB-231 [4]): inactive; Activity (MDA-MB-231 [10]): 19.3%; Activity (MDA-MB-231 [11]): 8%; Activity (MDA-MB-231 [12]): 72.6%
O=C(/C=C/C[C@H]1CC=CC(=O)O1)CCc1ccco1 | Active | Active | 5.45 | 5.48 | –
O=C(/C=C/C[C@H]1CC=CC(=O)O1)CCc1cccc(Oc2ccccc2)c1 | Active | Active | 5.47 | 5.49 | –
CCCCCCCCCCCCCCCCCC(=O)/C=C/C[C@H]1CC=CC(=O)O1 | Active | Active | 5.36 | 5.41 | –
O=C(/C=C/C[C@H]1CC=CC(=O)O1)CCc1c[nH]c2ccccc12 | Active | Active | 5.41 | 5.40 | –
O=C(/C=C/C[C@@H]1CC=CC(=O)O1)CCc1ccc2ccccc2c1 | Active | Active | 5.33 | 5.32 | –
O=C(/C=C/C[C@@H]1CC=CC(=O)O1)CCc1cccc(O)c1 | Active | Active | 5.29 | 5.21 | –
O=C(/C=C/C[C@@H]1CC=CC(=O)O1)CCc1cccc(Oc2ccccc2)c1 | Active | Active | 5.34 | 5.31 | –
CCCCCCCC/C=C\CCCCCCCC(=O)/C=C/C[C@@H]1CC=CC(=O)O1 | Active | Active | 5.29 | 5.26 | –
CCCCCCCCCCCCCCCC(=O)/C=C/C[C@@H]1CC=CC(=O)O1 | Active | Active | 5.40 | 5.39 | –
CCCCCCCC/C=C\CCCCCCCC(=O)/C=C/C[C@H]1CC=CC(=O)O1 | Active | Active | 5.57 | 5.53 | Activity (MDA-MB-231 [1]): Active; NF-kappaB activity inhibition (MDA-MB-231 [2]): Active; Activity (MDA-MB-231 [3]): Active; inhibition (MDA-MB-231 [19]): Active; inhibition (MDA-MB-231 [20]): Active; inhibition (MDA-MB-231 [21]): Active; Activity (MDA-MB-231 [4]): inactive; Activity (MDA-MB-231 [10]): 21.3%; Activity (MDA-MB-231 [11]): 8%; Activity (MDA-MB-231 [12]): 70.6%
O=C(/C=C/C[C@H]1CC=CC(=O)O1)CCc1ccc2ccccc2c1 | Active | Active | 5.35 | 5.44 | –
CCCCCCCCCCCC(=O)/C=C/C[C@H]1CC=CC(=O)O1 | Active | Active | 5.40 | 5.50 | –
CCCCCCCCCCCCCCCC(=O)/C=C/C[C@H]1CC=CC(=O)O1 | Active | Active | 5.42 | 5.40 | –
O=C(/C=C/C[C@@H]1CC=CC(=O)O1)CCc1c[nH]c2ccccc12 | Active | Active | 5.24 | 5.15 | –
CCCCCCCCCCCCCCCCC/C=C/C(=O)/C=C/C[C@@H]1CC=CC(=O)O1 | Active | Active | 5.42 | 5.35 | –
